From the supplement of paper PMC10307832

What was measured:
Experiment in all cases: relative viability (nuclei count vs DMSO), 5 days (fraction); higher = more cells survive
XMD13-2 + Decitabine = compound: C1CC1C(=O)NC2=NNC3=C2C=CC(=C3)C4=CC(=CC=C4)C(=O)NC5CC5 [XMD13-2] + Nc1ncn([C@H]2C[C@H](O)[C@@H](CO)O2)c(=O)n1 [Decitabine] (partner 2 µM)
Summary of the method: (§1)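 Lung cancer cell lines were seeded in 1536-well plates and dosed by pin tool the next day, with either a single drug or a fixed anchor-drug dose combined with five library-drug doses (not always all listed) spaced in √10 steps. Five days later, one step fixed the cells and stained their nuclei (final 0.05% Triton X-100, 1% formaldehyde, 1 ug/ml Hoechst), and nuclei were counted on 4× images. Relative viability is the nuclei count in treated wells divided by the count in vehicle wells, and each value is the median of duplicate plates.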

Dasatinib + Alpelisib = compound: Cc1nc(Nc2ncc(C(=O)Nc3c(C)cccc3Cl)s2)cc(N2CCN(CCO)CC2)n1 [Dasatinib] + Cc1nc(NC(=O)N2CCC[C@H]2C(N)=O)sc1-c1ccnc(C(C)(C)C(F)(F)F)c1 [Alpelisib] (partner 2 µM)
Summary of the method: as §1

ALW-II-49-7 + Tozasertib = compound: Cc1ccc(C(=O)Nc2cccc(C(F)(F)F)c2)cc1Nc1cncc(C(N)=O)c1 [ALW-II-49-7] + Cc1cc(Nc2cc(N3CCN(C)CC3)nc(Sc3ccc(NC(=O)C4CC4)cc3)n2)n[nH]1 [Tozasertib] (partner 0.1 µM)
Summary of the method: as §1

XMD13-2 + Olaparib = compound: C1CC1C(=O)NC2=NNC3=C2C=CC(=C3)C4=CC(=CC=C4)C(=O)NC5CC5 [XMD13-2] + O=C(c1cc(Cc2n[nH]c(=O)c3ccccc23)ccc1F)N1CCN(C(=O)C2CC2)CC1 [Olaparib] (partner 8 µM)
Summary of the method: as §1

Cell Line: 201T
- relative viability (XMD13-2 + Decitabine; first compound 0.05 µM): 0.861
- relative viability (XMD13-2 + Decitabine; first compound 0.1581 µM): 0.839
- relative viability (XMD13-2 + Decitabine; first compound 0.5 µM): 0.905
- relative viability (XMD13-2 + Decitabine; first compound 1.581 µM): 0.86
- relative viability (XMD13-2 + Decitabine; first compound 5 µM): 0.902
- relative viability (Dasatinib + Alpelisib; first compound 0.005 µM): 0.95
- relative viability (Dasatinib + Alpelisib; first compound 0.01581 µM): 0.922
- relative viability (Dasatinib + Alpelisib; first compound 0.05 µM): 0.845
- relative viability (Dasatinib + Alpelisib; first compound 0.1581 µM): 0.654
- relative viability (Dasatinib + Alpelisib; first compound 0.5 µM): 0.338
- relative viability (ALW-II-49-7 + Tozasertib; first compound 0.08 µM): 0.886
- relative viability (ALW-II-49-7 + Tozasertib; first compound 0.253 µM): 0.948
- relative viability (ALW-II-49-7 + Tozasertib; first compound 0.8 µM): 0.941
- relative viability (ALW-II-49-7 + Tozasertib; first compound 2.53 µM): 0.902
- relative viability (ALW-II-49-7 + Tozasertib; first compound 8 µM): 0.92
- relative viability (XMD13-2 + Olaparib; first compound 0.05 µM): 0.851
- relative viability (XMD13-2 + Olaparib; first compound 0.1581 µM): 0.866
- relative viability (XMD13-2 + Olaparib; first compound 0.5 µM): 0.856
- relative viability (XMD13-2 + Olaparib; first compound 1.581 µM): 0.811
- relative viability (XMD13-2 + Olaparib; first compound 5 µM): 0.876

Cell Line: A549
- relative viability (XMD13-2 + Decitabine; first compound 0.05 µM): 0.307
- relative viability (XMD13-2 + Decitabine; first compound 0.1581 µM): 0.233
- relative viability (XMD13-2 + Decitabine; first compound 0.5 µM): 0.289
- relative viability (XMD13-2 + Decitabine; first compound 1.581 µM): 0.247
- relative viability (XMD13-2 + Decitabine; first compound 5 µM): 0.24
- relative viability (Dasatinib + Alpelisib; first compound 0.005 µM): 0.65
- relative viability (Dasatinib + Alpelisib; first compound 0.01581 µM): 0.479
- relative viability (Dasatinib + Alpelisib; first compound 0.05 µM): 0.558
- relative viability (Dasatinib + Alpelisib; first compound 0.1581 µM): 0.432
- relative viability (Dasatinib + Alpelisib; first compound 0.5 µM): 0.139
- relative viability (XMD13-2 + Olaparib; first compound 0.05 µM): 0.415
- relative viability (XMD13-2 + Olaparib; first compound 0.1581 µM): 0.185
- relative viability (XMD13-2 + Olaparib; first compound 0.5 µM): 0.453
- relative viability (XMD13-2 + Olaparib; first compound 1.581 µM): 0.358
- relative viability (XMD13-2 + Olaparib; first compound 5 µM): 0.437

Cell Line: A-427
- relative viability (XMD13-2 + Decitabine; first compound 0.05 µM): 0.574
- relative viability (XMD13-2 + Decitabine; first compound 0.1581 µM): 0.553
- relative viability (XMD13-2 + Decitabine; first compound 0.5 µM): 0.612
- relative viability (XMD13-2 + Decitabine; first compound 5 µM): 0.503
- relative viability (Dasatinib + Alpelisib; first compound 0.005 µM): 0.961
- relative viability (Dasatinib + Alpelisib; first compound 0.01581 µM): 1.06
- relative viability (Dasatinib + Alpelisib; first compound 0.05 µM): 1
- relative viability (Dasatinib + Alpelisib; first compound 0.1581 µM): 0.573
- relative viability (Dasatinib + Alpelisib; first compound 0.5 µM): 0.533
- relative viability (ALW-II-49-7 + Tozasertib; first compound 0.08 µM): 0.18
- relative viability (ALW-II-49-7 + Tozasertib; first compound 0.253 µM): 0.204
- relative viability (ALW-II-49-7 + Tozasertib; first compound 0.8 µM): 0.21
- relative viability (ALW-II-49-7 + Tozasertib; first compound 2.53 µM): 0.177
- relative viability (ALW-II-49-7 + Tozasertib; first compound 8 µM): 0.204
- relative viability (XMD13-2 + Olaparib; first compound 0.05 µM): 0.814
- relative viability (XMD13-2 + Olaparib; first compound 0.1581 µM): 0.688
- relative viability (XMD13-2 + Olaparib; first compound 0.5 µM): 0.728
- relative viability (XMD13-2 + Olaparib; first compound 5 µM): 0.485

Cell Line: ABC-1
- relative viability (XMD13-2 + Decitabine; first compound 0.05 µM): 1.13
- relative viability (XMD13-2 + Decitabine; first compound 0.1581 µM): 1.33
- relative viability (XMD13-2 + Decitabine; first compound 0.5 µM): 1.24
- relative viability (XMD13-2 + Decitabine; first compound 5 µM): 1.11
- relative viability (Dasatinib + Alpelisib; first compound 0.005 µM): 0.978
- relative viability (Dasatinib + Alpelisib; first compound 0.01581 µM): 0.776
- relative viability (Dasatinib + Alpelisib; first compound 0.05 µM): 0.888
- relative viability (Dasatinib + Alpelisib; first compound 0.1581 µM): 0.714
- relative viability (Dasatinib + Alpelisib; first compound 0.5 µM): 0.571
- relative viability (ALW-II-49-7 + Tozasertib; first compound 0.08 µM): 0.172
- relative viability (ALW-II-49-7 + Tozasertib; first compound 0.253 µM): 0.179
- relative viability (ALW-II-49-7 + Tozasertib; first compound 0.8 µM): 0.162
- relative viability (ALW-II-49-7 + Tozasertib; first compound 2.53 µM): 0.197
- relative viability (ALW-II-49-7 + Tozasertib; first compound 8 µM): 0.191
- relative viability (XMD13-2 + Olaparib; first compound 0.05 µM): 0.925
- relative viability (XMD13-2 + Olaparib; first compound 0.1581 µM): 0.869
- relative viability (XMD13-2 + Olaparib; first compound 0.5 µM): 1.08
- relative viability (XMD13-2 + Olaparib; first compound 5 µM): 0.688

Cell Line: BEN
- relative viability (XMD13-2 + Decitabine; first compound 0.05 µM): 0.803
- relative viability (XMD13-2 + Decitabine; first compound 0.1581 µM): 0.705
- relative viability (XMD13-2 + Decitabine; first compound 0.5 µM): 0.719
- relative viability (XMD13-2 + Decitabine; first compound 1.581 µM): 0.648
- relative viability (XMD13-2 + Decitabine; first compound 5 µM): 0.705
- relative viability (Dasatinib + Alpelisib; first compound 0.005 µM): 0.857
- relative viability (Dasatinib + Alpelisib; first compound 0.01581 µM): 0.536
- relative viability (Dasatinib + Alpelisib; first compound 0.05 µM): 0.611
- relative viability (Dasatinib + Alpelisib; first compound 0.1581 µM): 0.342
- relative viability (Dasatinib + Alpelisib; first compound 0.5 µM): 0.365
- relative viability (ALW-II-49-7 + Tozasertib; first compound 0.08 µM): 0.331
- relative viability (ALW-II-49-7 + Tozasertib; first compound 0.253 µM): 0.524
- relative viability (ALW-II-49-7 + Tozasertib; first compound 0.8 µM): 0.512
- relative viability (ALW-II-49-7 + Tozasertib; first compound 2.53 µM): 0.515
- relative viability (ALW-II-49-7 + Tozasertib; first compound 8 µM): 0.632
- relative viability (XMD13-2 + Olaparib; first compound 0.05 µM): 0.925
- relative viability (XMD13-2 + Olaparib; first compound 0.1581 µM): 0.94
- relative viability (XMD13-2 + Olaparib; first compound 0.5 µM): 0.941
- relative viability (XMD13-2 + Olaparib; first compound 1.581 µM): 1.12
- relative viability (XMD13-2 + Olaparib; first compound 5 µM): 0.995

Cell Line: CAL-12T
- relative viability (Dasatinib + Alpelisib; first compound 0.005 µM): 1.15
- relative viability (Dasatinib + Alpelisib; first compound 0.01581 µM): 1.03
- relative viability (Dasatinib + Alpelisib; first compound 0.05 µM): 1.62
- relative viability (Dasatinib + Alpelisib; first compound 0.1581 µM): 1.13
- relative viability (Dasatinib + Alpelisib; first compound 0.5 µM): 0.355
- relative viability (ALW-II-49-7 + Tozasertib; first compound 0.08 µM): 0.289
- relative viability (ALW-II-49-7 + Tozasertib; first compound 0.253 µM): 0.406
- relative viability (ALW-II-49-7 + Tozasertib; first compound 0.8 µM): 0.389
- relative viability (ALW-II-49-7 + Tozasertib; first compound 2.53 µM): 0.274
- relative viability (ALW-II-49-7 + Tozasertib; first compound 8 µM): 0.308
- relative viability (XMD13-2 + Olaparib; first compound 0.05 µM): 0.694
- relative viability (XMD13-2 + Olaparib; first compound 0.1581 µM): 0.799
- relative viability (XMD13-2 + Olaparib; first compound 0.5 µM): 0.708
- relative viability (XMD13-2 + Olaparib; first compound 1.581 µM): 0.695
- relative viability (XMD13-2 + Olaparib; first compound 5 µM): 0.697

Cell Line: COR-L23
- relative viability (XMD13-2 + Decitabine; first compound 0.05 µM): 0.438
- relative viability (XMD13-2 + Decitabine; first compound 0.1581 µM): 0.399
- relative viability (XMD13-2 + Decitabine; first compound 0.5 µM): 0.513
- relative viability (XMD13-2 + Decitabine; first compound 1.581 µM): 0.458
- relative viability (XMD13-2 + Decitabine; first compound 5 µM): 0.376
- relative viability (Dasatinib + Alpelisib; first compound 0.005 µM): 0.591
- relative viability (Dasatinib + Alpelisib; first compound 0.01581 µM): 0.5
- relative viability (Dasatinib + Alpelisib; first compound 0.05 µM): 0.523
- relative viability (Dasatinib + Alpelisib; first compound 0.1581 µM): 0.347
- relative viability (Dasatinib + Alpelisib; first compound 0.5 µM): 0.216
- relative viability (ALW-II-49-7 + Tozasertib; first compound 0.08 µM): 0.206
- relative viability (ALW-II-49-7 + Tozasertib; first compound 0.253 µM): 0.193
- relative viability (ALW-II-49-7 + Tozasertib; first compound 0.8 µM): 0.17
- relative viability (ALW-II-49-7 + Tozasertib; first compound 2.53 µM): 0.15
- relative viability (ALW-II-49-7 + Tozasertib; first compound 8 µM): 0.15
- relative viability (XMD13-2 + Olaparib; first compound 0.05 µM): 0.327
- relative viability (XMD13-2 + Olaparib; first compound 0.1581 µM): 0.36
- relative viability (XMD13-2 + Olaparib; first compound 0.5 µM): 0.33
- relative viability (XMD13-2 + Olaparib; first compound 1.581 µM): 0.336
- relative viability (XMD13-2 + Olaparib; first compound 5 µM): 0.387

Cell Line: COR-L 105
- relative viability (XMD13-2 + Decitabine; first compound 0.05 µM): 0.747
- relative viability (XMD13-2 + Decitabine; first compound 0.1581 µM): 0.717
- relative viability (XMD13-2 + Decitabine; first compound 0.5 µM): 0.755
- relative viability (XMD13-2 + Decitabine; first compound 1.581 µM): 0.66
- relative viability (XMD13-2 + Decitabine; first compound 5 µM): 0.638
- relative viability (Dasatinib + Alpelisib; first compound 0.005 µM): 0.671
- relative viability (Dasatinib + Alpelisib; first compound 0.01581 µM): 0.486
- relative viability (Dasatinib + Alpelisib; first compound 0.05 µM): 0.715
- relative viability (Dasatinib + Alpelisib; first compound 0.1581 µM): 0.452
- relative viability (Dasatinib + Alpelisib; first compound 0.5 µM): 0.209
- relative viability (ALW-II-49-7 + Tozasertib; first compound 0.08 µM): 0.38
- relative viability (ALW-II-49-7 + Tozasertib; first compound 0.253 µM): 0.263
- relative viability (ALW-II-49-7 + Tozasertib; first compound 0.8 µM): 0.346
- relative viability (ALW-II-49-7 + Tozasertib; first compound 2.53 µM): 0.336
- relative viability (ALW-II-49-7 + Tozasertib; first compound 8 µM): 0.315
- relative viability (XMD13-2 + Olaparib; first compound 0.05 µM): 0.606
- relative viability (XMD13-2 + Olaparib; first compound 0.1581 µM): 0.678
- relative viability (XMD13-2 + Olaparib; first compound 0.5 µM): 0.656
- relative viability (XMD13-2 + Olaparib; first compound 1.581 µM): 0.564
- relative viability (XMD13-2 + Olaparib; first compound 5 µM): 0.759
